Assay results: PubChem BioAssay AID2060905 (Molecular Pharmacology Branch, DTP, NCI, 2025)

System: 282377-053-R-J1-PDC complex spheroid viability
Test: Anticancer human tumor 282377-053-R-J1-PDC patient-derived colon adenocarcinoma cell line growth inhibition [RAS]
Settings: for IC50: curve of first compound; for viability, T/C: stronger effect = lower value
Method in brief: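 Multi-cell-type spheroids: tumor cells plus HUVEC endothelial cells and mesenchymal stem cells. RAS-pathway inhibitors were combined with targeted agents, each dosed in half-log steps down from clinical Cmax, or from 10 microM when Cmax was unknown.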
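Note: spheroids exposed to agents for seven days before readout.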
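Throughout, for viability, T/C: luminescence viability as percent of DMSO vehicle control wells.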

**Q.** For CC(C)n1nc(-c2ccc3oc(N)nc3c2)c2c(N)ncnc21 + CCn1c(-c2cc(N3CCN(C)CC3)cnc2C(C)OC)c2c3cc(ccc31)-c1csc(n1)CC(NC(=O)C1CC1C)C(=O)N1CCCC(N1)C(=O)OCC(C)(C)C2, which IC50 (second compound 0.000949 µM) is on record?
**A.** Its IC50 is > 100 nM.

**Q.** What about the IC50 (second compound 0.003 µM) of the same compound?
**A.** Its IC50 is 60.5 nM.

**Q.** And the IC50 (second compound 0.00949 µM)?
**A.** The IC50 was 96.2 nM.

**Q.** And the IC50 (second compound 0.03 µM)?
**A.** Its IC50 is 43.8 nM.

**Q.** And the IC50 (second compound 0.0949 µM)?
**A.** The IC50 was 45.1 nM.

**Q.** And the IC50 (second compound 0.3 µM)?
**A.** The IC50 was > 100 nM.

**Q.** What about the viability, T/C (second compound 0.000949 µM, first compound 0.000316 µM) of the same compound?
**A.** Its viability, T/C is 68.7%.

**Q.** And the viability, T/C (second compound 0.000949 µM, first compound 0.001 µM)?
**A.** Its viability, T/C is 101%.

**Q.** And the viability, T/C (second compound 0.000949 µM, first compound 0.00316 µM)?
**A.** Its viability, T/C is 86.2%.

**Q.** And the viability, T/C (second compound 0.000949 µM, first compound 0.01 µM)?
**A.** Its viability, T/C is 74.5%.

**Q.** And the viability, T/C (second compound 0.000949 µM, first compound 0.0316 µM)?
**A.** The viability, T/C was 64.3%.

**Q.** And the viability, T/C (second compound 0.000949 µM, first compound 0.1 µM)?
**A.** Its viability, T/C is 50.4%.

**Q.** And the viability, T/C (second compound 0.003 µM, first compound 0.000316 µM)?
**A.** The viability, T/C was 103%.

**Q.** And the viability, T/C (second compound 0.003 µM, first compound 0.001 µM)?
**A.** The viability, T/C was 102%.

**Q.** And the viability, T/C (second compound 0.003 µM, first compound 0.00316 µM)?
**A.** Its viability, T/C is 77.8%.

**Q.** And the viability, T/C (second compound 0.003 µM, first compound 0.01 µM)?
**A.** Its viability, T/C is 72.1%.

**Q.** What about the viability, T/C (second compound 0.003 µM, first compound 0.0316 µM) of the same compound?
**A.** The viability, T/C was 61.7%.

**Q.** What about the viability, T/C (second compound 0.003 µM, first compound 0.1 µM) of the same compound?
**A.** The viability, T/C was 42.1%.

**Q.** What about the viability, T/C (second compound 0.00949 µM, first compound 0.000316 µM) of the same compound?
**A.** Its viability, T/C is 96.1%.

**Q.** What about the viability, T/C (second compound 0.00949 µM, first compound 0.001 µM) of the same compound?
**A.** The viability, T/C was 102%.

**Q.** And the viability, T/C (second compound 0.00949 µM, first compound 0.00316 µM)?
**A.** The viability, T/C was 93.8%.

**Q.** And the viability, T/C (second compound 0.00949 µM, first compound 0.01 µM)?
**A.** Its viability, T/C is 73.4%.

**Q.** What about the viability, T/C (second compound 0.00949 µM, first compound 0.0316 µM) of the same compound?
**A.** Its viability, T/C is 54.3%.

**Q.** What about the viability, T/C (second compound 0.00949 µM, first compound 0.1 µM) of the same compound?
**A.** Its viability, T/C is 49.5%.

**Q.** What about the viability, T/C (second compound 0.03 µM, first compound 0.000316 µM) of the same compound?
**A.** Its viability, T/C is 104%.

**Q.** What about the viability, T/C (second compound 0.03 µM, first compound 0.001 µM) of the same compound?
**A.** The viability, T/C was 88%.

**Q.** What about the viability, T/C (second compound 0.03 µM, first compound 0.00316 µM) of the same compound?
**A.** The viability, T/C was 88.9%.

**Q.** And the viability, T/C (second compound 0.03 µM, first compound 0.01 µM)?
**A.** The viability, T/C was 62.4%.

**Q.** And the viability, T/C (second compound 0.03 µM, first compound 0.0316 µM)?
**A.** Its viability, T/C is 54%.

**Q.** And the viability, T/C (second compound 0.03 µM, first compound 0.1 µM)?
**A.** The viability, T/C was 43.5%.

**Q.** What about the viability, T/C (second compound 0.0949 µM, first compound 0.000316 µM) of the same compound?
**A.** Its viability, T/C is 100%.

**Q.** What about the viability, T/C (second compound 0.0949 µM, first compound 0.001 µM) of the same compound?
**A.** Its viability, T/C is 84.9%.

**Q.** And the viability, T/C (second compound 0.0949 µM, first compound 0.00316 µM)?
**A.** Its viability, T/C is 86.9%.

**Q.** And the viability, T/C (second compound 0.0949 µM, first compound 0.01 µM)?
**A.** Its viability, T/C is 60.7%.

**Q.** What about the viability, T/C (second compound 0.0949 µM, first compound 0.0316 µM) of the same compound?
**A.** The viability, T/C was 57.7%.

**Q.** And the viability, T/C (second compound 0.0949 µM, first compound 0.1 µM)?
**A.** Its viability, T/C is 39.5%.

**Q.** And the viability, T/C (second compound 0.3 µM, first compound 0.000316 µM)?
**A.** The viability, T/C was 90.3%.

**Q.** What about the viability, T/C (second compound 0.3 µM, first compound 0.001 µM) of the same compound?
**A.** Its viability, T/C is 98.8%.

**Q.** And the viability, T/C (second compound 0.3 µM, first compound 0.00316 µM)?
**A.** The viability, T/C was 78.3%.

**Q.** What about the viability, T/C (second compound 0.3 µM, first compound 0.01 µM) of the same compound?
**A.** Its viability, T/C is 65.5%.

**Q.** And the viability, T/C (second compound 0.3 µM, first compound 0.0316 µM)?
**A.** Its viability, T/C is 58.9%.

**Q.** What about the viability, T/C (second compound 0.3 µM, first compound 0.1 µM) of the same compound?
**A.** The viability, T/C was 48.9%.
